Assay results published in patent publication US20240123036A1, “COMPOSITIONS AND METHODS FOR THE TREATMENT OF GRAFT VERSUS HOST DISEASE” (VectivBio AG, priority 2021, published 2024).
Where two headings read alike, the source gives them in different places. Square brackets hold non-standard residues; d marks the D form. Peptide text beside a SMILES is read from it. ξ: configuration not given here. Ile(3ξ) = CCC(C)[C@H](N)C(=O)O; Thr(3ξ) = CC(O)[C@H](N)C(=O)O; Nle = CCCC[C@H](N)C(=O)O

Assays:
[1] = test system: cytarabine-induced damage in BALB/cJ female mice; settings: for polymorphonuclear (PMN) cell count: cytarabine 30 mg/kg twice per day, alone or combined with hGLP-2 or apraglutide, FIG. 20
Method: In a first experiment BALB/cJ female mice were separated into six groups for a dose-response study to assess the pharmacologic effect of increasing doses of apraglutide (0.11, 0.3 and 1.1 mg/kg) administered subcutaneously. Cytarabine was administered intraperitoneally at 30 mg/kg twice per day for 5 days (Day 0 to Day +4). Apraglutide was administered daily for a total of nine days, 4 days before and 5 days during the administration of chemotherapy (Day −4 to Day +4). Apraglutide effect was compared to unmodified hGLP-2 which was administered twice daily from Day −4 to Day +4, at a nominal dose of 0.60 mg/kg and combined with cytarabine.

[2] = test system: human leukemia cells (hCD45+) in NOD/SCID mice; settings: Day 7; cytarabine Days 0-4; apraglutide or vehicle Days -4 to 4
Method: In a first experiment, cytarabine' s anti-tumor effects were assessed in leukemic NOD/SCID mice (FIG. 11a). Apraglutide or vehicle was administered on Days -4 to 4. Cytarabine or vehicle was administered on Days 0-4. Bone marrow and spleen samples were collected on Day 7 and percentage of hCD45+ cells determined.

[3] = test system: fecal microbiota (Bacteroidetes, Firmicutes) of Balb/c mice; settings: feces
[4] = test system: blood cells of Balb/c mice; experiment: Cytarabine-induced immunosuppression, blood cell counts in Balb/c mice (Example 5, second experiment); format: in vivo, mouse; design: reduction in lymphocytes / Red blood cells, percentage difference from control / Platelets, percentage difference from control / White blood cells, percentage difference from control / Lymphocytes, percentage difference from control / Neutrophils, percentage difference from control: concentration or dose not given beside the values
Method: In a second experiment, apraglutide's effect on the ability of cytarabine to induce immunosuppression was assessed. The experiment included three groups of Balb/c mice: (A) vehicle; (B) cytarabine on Days 5-9; (C) cytarabine on Days 5-9, concomitant apraglutide on Days 5-18. RBC, platelets, WBC, NEU and LYMPH were assessed. A cohort was allowed to survive for 4 weeks to assess the effect of apraglutide on immunosuppression recovery (FIG. 12).

[5] = test system: GvHD-induced intestinal damage in BALB/cJ mice; experiment: TBI-induced intestinal damage and allogeneic transplantation in BALB/cJ mice (Example 2, second experiment); format: in vivo, mouse
Method: Intestinal damage indicative of GvHD (histological changes, length, hemorrhage, inflammation), body weight, and survival were assessed.

[6] = test system: hPBMC engraftment in NOG mice; experiment: Engraftment of human PBMC in total-body-irradiated NOG mice (Example 2, first experiment); format: in vivo, mouse
Method: Engraftment rate was determined through CD45 expression in blood, bone marrow and spleen.

[7] = test system: blood cells of Balb/c mice; experiment: Melphalan-induced immunosuppression in Balb/c mice (Example 5, third experiment); format: in vivo, mouse
Method: In a third experiment, the effect of apraglutide on melphalan-induced immunosuppression was assessed (FIG. 13). Three groups of Balb/c mice were included: (A) vehicle; (B) melphalan on Day 9; (C) melphalan on Day 9, apraglutide pre-treatment on Days 1, 3, 5, 7 and continued as co-administration on Days 9, 11, and 13. WBC, NEU and LYMPH were assessed.

[8] = test system: acute gastrointestinal GvHD in BALB/cJ male mice; experiment: Acute GvHD mouse model, 7.0 Gy irradiation plus allogeneic transplant (Example 1, second experiment); format: in vivo
Description: FIG. 3a-3b is a series of graphs showing colon length and small intestine length in an acute GvHD mouse model following treatment with apraglutide. Data are shown as the mean ±SEM length of intestinal colon. N-5-10/group. Each dot represents data for one mouse.
FIG. 14 is a series of graphs showing that treatment with apraglutide improves animal survival of TBI/BMT treated animals. Kaplan-Meier curves—Animal survival was monitored daily. N=10 at time=0 for each treatment group. […] When comparing to the control group, survival of TBI/BMT was significant different ### p=0.0007. BMT=b one marrow transplant; TBI=total body irradiation.

[9] = test system: acute gastrointestinal GvHD in BALB/cJ male mice; experiment: Acute GvHD mouse model, 8.5 Gy irradiation plus allogeneic bone marrow/spleen cell transplant (Example 1, first experiment); format: in vivo
Method: Mouse #3 (Group A), #13 (Group B) and #20 (Group B) were administered the cells by subcutaneous injection rather than intravenously. Mouse #5 (Group B) and #10 (Group B) received half the cells by intravenous injection and half by subcutaneous injection.
Following sacrifice of the mice, the colon lengths of the mice in Group A and Group B, as well as a control group of BALB/c mice (untreated), were measured. […] Thus, treatment with apraglutide protected the mice in Group A from a reduction in colon length, which is typically attributed to the inflammation caused by acute, gastrointestinal GvHD.
Various histological parameters of the jejunum were also measured, including single cell necrosis levels, necrosis of all crypts, shortening of villi, cryptal hyperplasia (regenerative), cell infiltrate, and cryptal abscess. These histological parameters were graded on a standard histological grading system (1 to 3). […] These indicate that the administration of apraglutide has a protective effective against jejunal mucosal damages induced by irradiation and GvHD.

[10] = test system: chemotherapy-induced gastrointestinal damage in Balb/c mice; experiment: Chemotherapy-induced (cytarabine or melphalan) intestinal damage in Balb/c mice (Example 3); format: in vivo, mouse
Method: In a first experiment, 4 groups of Balb/c mice: (A) vehicle only; (B) cytarabine on Days 5-9, no apraglutide given; (C) cytarabine on Days 5-9; concomitant apraglutide on Days 5-18; (D) cytarabine on Days 5-9; pre-treatment apraglutide on Days 1, 3, and continued as concomitant treatment on Days 5, 8, 11, 14, and 17. Treatment groups were dosed with 30 mg/kg cytarabine and/or apraglutide 3.3 mg/kg.
In a second experiment, 3 treatment groups of Balb/c mice: (A) vehicle only; (B) melphalan on Day 9, no apraglutide; (C) melphalan on Day 9; pre-treatment apraglutide on Days 1, 3, 5, 7 and continued as concomitant treatment on Days 9, 11, and 13.
In both models, mice that received vehicle without any treatment served as controls. Intestinal tissue histology, body weight, survival, and plasma citrulline, a marker of total mucosal mass and intestinal growth, was assessed in both models.

[11] = Day 18 (post-treatment), cytarabine 30 mg/kg Days 5-9, apraglutide 3.3 mg/kg Days 1-18
[12] = melphalan on Day 9, with or without apraglutide

## Nc1ccn([C@@H]2O[C@H](CO)[C@@H](O)[C@@H]2O)c(=O)n1 [Cytarabine only, Cytarabine]
[1]
  polymorphonuclear (PMN) cell count: depleted
[2]
  percentage of hCD45 in bone marrow after chemotherapy: 35.5±4%
[3]; Day 0 (pre-treatment)
  Mean % of taxa at the Phylum level, Bacteroidetes, Day 0: 16.3%
  Mean % of taxa at the Phylum level, Firmicutes, Day 0: 78.7%
[3]; [11]
  Mean % of taxa at the Phylum level, Bacteroidetes, Day 18: 48.7%
  Mean % of taxa at the Phylum level, Firmicutes, Day 18: 49.5%
[4]; at treatment end
  Lymphocytes, percentage difference from control: −91%
  Neutrophils, percentage difference from control: −82%
  Platelets, percentage difference from control: −68%
  Red blood cells, percentage difference from control: −23%
  White blood cells, percentage difference from control: −89%
[4]; end of the treatment period
  reduction in lymphocytes: 91%

## CCCC[C@H](NC(=O)[C@H](CCC(=O)O)NC(=O)[C@H](CC(=O)O)NC(=O)[C@H](CO)NC(=O)[C@H](Cc1ccccc1)NC(=O)[C@H](CO)NC(=O)CNC(=O)[C@H](CC(=O)O)NC(=O)CNC(=O)[C@@H](N)Cc1c[nH]cn1)C(=O)N[C@H](Cc1ccccc1)C(=O)N[C@H](C(=O)N[C@H](C(=O)N[C@@H](CC(C)C)C(=O)N[C@@H](CC(=O)O)C(=O)N[C@@H](CC(C)C)C(=O)N[C@@H](CC(C)C)C(=O)N[C@@H](C)C(=O)N[C@@H](C)C(=O)N[C@@H](CCCNC(=N)N)C(=O)N[C@@H](CC(=O)O)C(=O)N[C@@H](Cc1ccccc1)C(=O)N[C@H](C(=O)N[C@@H](CC(N)=O)C(=O)N[C@@H](Cc1c[nH]c2ccccc12)C(=O)N[C@@H](CC(C)C)C(=O)N[C@H](C(=O)N[C@@H](CCC(N)=O)C(=O)N[C@H](C(=O)N[C@@H](CCCCN)C(=O)N[C@H](C(=O)N[C@H](C(=O)N[C@@H](CC(=O)O)C(N)=O)C(C)O)C(C)CC)C(C)O)C(C)CC)C(C)CC)C(C)CC)C(C)O (stereo partly drawn) [apraglutide] (H-HGDGSFSDE[Nle][dF][Thr(3ξ)][Ile(3ξ)]LDLLAARDF[Ile(3ξ)]NWL[Ile(3ξ)]Q[Thr(3ξ)]K[Ile(3ξ)][Thr(3ξ)]D-NH2)
[1]; apraglutide 0.11 mg/kg s.c. daily Day -4 to +4 with cytarabine 30 mg/kg i.p. twice per day Day 0 to +4
  animal survival: 11/16
[1]; apraglutide 0.33 mg/kg and 1.1 mg/kg co-administered with cytarabine, compared to cytarabine alone, FIG. 19
  citrulline concentrations: improvement
[1]; apraglutide 0.33 mg/kg s.c. daily Day -4 to +4 with cytarabine 30 mg/kg i.p. twice per day Day 0 to +4
  animal survival: 14/16
[1]; apraglutide 1.1 mg/kg s.c. daily Day -4 to +4 with cytarabine 30 mg/kg i.p. twice per day Day 0 to +4
  animal survival: 16/16
[1]; combination with cytarabine, apraglutide 0.11 mg/kg, hGLP-2 0.60 mg/kg twice daily
  initial weight loss: did not decrease
[1]; combination with cytarabine, apraglutide 0.11 mg/kg, hGLP-2 0.60 mg/kg twice daily, FIG. 18
  body weight and survival in animals recovering from cytarabine treatment: a trend towards increased body weight and survival
[1]
  polymorphonuclear (PMN) cell count: not reversed
[5]; apraglutide 3.3 mg/kg Days -9 to +7
  lymphocyte engraftment: successfully achieved
[5]; apraglutide 3.3 mg/kg, TBI + allogeneic transplantation
  mean colon length: 8.6±0.35 cm
[5]; apraglutide vs vehicle
  mucosal degenerative/inflammatory changes (post-mortem histological examination): less
[5]; on Day +9, p=0.0134 vs vehicle
  overall survival: 40%
[6]; apraglutide 3.3 mg/kg Days -6 to 18, CD45 expression
  engraftment rate in blood, spleen and bone marrow: not affected
[6]; apraglutide vs vehicle
  hCD45+ cells infiltration in the intestinal wall: no difference
[6]; at D20 in blood, range
  engraftment rate in blood: 22.2-47.6%
[7]; combination with apraglutide
  impact on cytarabine- or melphalan-induced immunosuppression: no negative impact
[4]; 4 weeks after the end of treatment
  recovery of hematological parameters: did not impact
[8]; Group A (apraglutide)
  body weight of mice surviving beyond Day 9: regained body weight
[8]; Group A (apraglutide) vs Group B (vehicle)
  weight loss: No significant difference
[8]; across the three Groups, FIG. 3
  length of the small intestine: no differences were observed
[8]; apraglutide 3 mg/kg s.c. every second day Day -9 to +7, 7.0 Gy + transplant
  median survival: 9 days
[8]; apraglutide 3 mg/kg s.c., 7.0 Gy + transplant
  mice survived past Day 9: 40%
[8]; apraglutide initiated before TBI/BMT, FIG. 14, p<0.03
  animal survival (Kaplan-Meier, log-rank test): significant difference relative to TBI/BMT animals
[8]; macroscopic score 0 least severe to 4 most severe, Group A
  mice showing an intestinal pathological score of 0: four out of out of ten
[9]; apraglutide 3 mg/kg s.c. every second day Day -9 to +7, 8.5 Gy, vs vehicle group and untreated control mice, FIG. 1
  colon length: increased colon lengths that were nearly the same as the control mice
[9]; apraglutide 3 mg/kg s.c., compared with vehicle, histological grading 1 to 3
  overall mean severity score of mucosal degenerative/inflammatory changes in the jejunum: slightly decreased
[9]; jejunum, apraglutide 3 mg/kg s.c., compared with vehicle
  mean severity score of the regenerative cryptal hyperplasia: slightly increased
[10]; FIG. 8
  chemotherapy-induced weight loss: attenuated
[10]; apraglutide 3.3 mg/kg co-administration, histology
  degenerative intestinal changes (villi and crypt atrophy) caused by cytarabine or melphalan: reduced
[10]; vs vehicle-only or chemotherapy-only groups, FIG. 9
  overall survival: improved
[10]; with apraglutide
  weight of duodenum, ileum and jejunum: increased in weight

## N[C@@H](Cc1ccc(N(CCCl)CCCl)cc1)C(=O)O [melphalan, Melphalan]
[7]; [12]
  LYMPH vs vehicle: severe decreases
  WBC vs vehicle: severe decreases
